Measured values as given in patent US20260226094A1, “STEROL-BASED CATIONIC LIPIDS WITH AROMATIC HEAD GROUPS” (SANOFI, priority 2023, published 2026).

Experiments:
[1] = Lipid degradability by human lung S9 in vitro; format: in vitro ADME; settings: 2 μM lipid, 2.4 mg/ml lung S9, pH 7.4, 37° C.
Description: (§1) Lipid degradability by MOUSE/HUMAN lung S9 in vitro
(§2) Assay format—4 or 5 time points in triplicate.
(§3) • 1) Plan experiment, compounds, and reagents. • 2) Dissolve each lipid in DMSO or IPA to make 5 mM stock, then dilute by IPA to 200 μM work solution. • 3) Thaw mouse and human lung S9. • 4) Prepare pooled incubation mixture as in the reaction formulas below on ice. • 5) Aliquot 495 μL incubation mixture prepared in step #4 to each well of a 2 mL 96-well plate. • 6) Add 5 μL compound to each well to initiate the reaction. Take t0 samples (as in step #8). • 7) Cover the plate with 2 layers of breathable seals and incubate the plate on an orbital shaker at 150 rpm in a 37° C. CO2 incubator. • 8) At each time point, pipette to mix the incubation mixture 5 times, then take 70 μL of incubation mixture to a fresh plate. Store in −20° C. freezer immediately. • 9) Add 210 μL (3× volume) of the cold stop solution to each well of the sample plates collected. Mix at 600 rpm on an orbital shaker for 15 min. • 10) Centrifuge the quenched plates at 3800 rpm for 10 min at 4° C. and transfer supernatant to fresh plates. • 11) Load the supernatant on filter plates and centrifuge again at 3800 rpm for 5 min at 4° C. Collect final samples in fresh plates for LC/MS.
(§4) • 4-5 Time points (hour): e.g. 0, 4, 8, 24, 48 hr • stop solution: 1:1:1 ACN/MeOH/IPA (v/v/v) with propranolol & MC3 as internal standard. Store at 4° C.

male CD1 mice = experiment: Delivery of FFL mRNA by intratracheal administration, IVIS luciferase imaging of the lung; format: in vivo, mouse; settings: lipid nanoparticles with FFL mRNA, single intratracheal administration via catheter, about 24 hours post-dose
Description: Lipid nanoparticle formulations listed in Table 1 comprising FFL mRNA, cationic lipid, DMG-PEG2000, cholesterol and DOPE were administered to male CD1 mice (6-8 weeks old) by a single intratracheal administration via Catheter® ([…]) while under anesthesia. At approximately 24 hours post-dose, the animals were dosed with luciferin at 150 mg/kg (60 mg/ml) by intraperitoneal injection at 2.5 ml/kg. After 5-15 minutes, all animals were imaged using an IVIS imaging system to measure luciferase production in the lung.

mice = experiment: Delivery of FFL mRNA by intranasal administration, IVIS luminescent imaging; format: in vivo, mouse; settings: lipid nanoparticle with FFL mRNA, dose 10 μg/Animal, 24 hours post dose
Description: Lipid nanoparticle formulation 3 listed in Table 1 comprising FFL mRNA, cationic lipid, DMG-PEG2000, cholesterol and DOPE was administered in mice via pipetting the formulations at 10 μg/Animal and 15 μl per nostril. On Day 2, 24 hours post dose (±5%), all animals undergo a luminescent imaging session using IVIS with separate ROIs on the nose and lungs. Whole body imaging are performed 10-15 minutes following D-Luciferin administration. All animals are dosed with 0.2 mL of 15 mg/mL D-luciferin solution via intraperitoneal (IP) injection. Anesthesia performed by isoflurane during the procedure and animals will be placed sternal recumbency (face-down). […]

[2] = Lipid degradability by mouse lung S9 in vitro; format: in vitro ADME; settings: 2 μM lipid, 2.4 mg/ml lung S9, pH 7.4, 37° C.
Description: as §1, §2, §3, §4

Row | Structure (SMILES) | In vitro degradation Human lung S9 [1] | in vivo FFL protein production (luciferase activity in the lung, FIG. 5) (male CD1 mice) | FFLuc (Avr. Rad.) (mice) | In vitro degradation Mouse lung S9 [2]
1 | COc1cc(C(=O)OCCNC(=N)N)cc(OC)c1OC(=O)CCO[C@H]1CC[C@@]2(C)C(=CC[C@H]3[C@@H]4CC[C@H]([C@H](C)CCCC(C)C)[C@@]4(C)CC[C@@H]32)C1 [Compound III] | 39.2 h | high levels of in vivo FFL protein production | 890,880 p/s/cm^2/sr | 50.1 h
2 | COc1cc(C(=O)OCCCN(C)C)cc(OC)c1OC(=O)CCO[C@H]1CC[C@@]2(C)C(=CC[C@H]3[C@@H]4CC[C@H]([C@H](C)CCCC(C)C)[C@@]4(C)CC[C@@H]32)C1 [Compound II] | 38.2 h | – | 592,290 p/s/cm^2/sr | 39.3 h
3 | COc1cc(C(=O)OCCCNC(=N)N)cc(OC)c1OC(=O)CCO[C@H]1CC[C@@]2(C)C(=CC[C@@H]3C2CC[C@]2(C)[C@@H]([C@H](C)CCCC(C)C)CC[C@@H]32)C1 (some centres unmarked) [Compound IV] | 62.9 h | high levels of in vivo FFL protein production | 833,279 p/s/cm^2/sr | 69.6 h
4 | COc1cc(C(=O)OCCN(C)C)cc(OC)c1OC(=O)CCC(=O)O[C@H]1CC[C@@]2(C)C(=CC[C@H]3[C@@H]4CC[C@H]([C@H](C)CCCC(C)C)[C@@]4(C)CC[C@@H]32)C1 [Compound I] | 22.2 h | – | 421,679 p/s/cm^2/sr | 23.6 h
